Measurements from PubChem BioAssay AID248 (DTP/NCI, 2004).
Several values for one entry are separate records, joined by “and”; a condition that tells them apart may be missing. Equal values may be shown once. Inconclusive results and toxic doses are left out. Cut-off read from the data, not from the text of the source: active = T/C of 150% or more; inactive = T/C below 125%.

Tested on: L1210 leukemia ip in BDF1 mice, survival T/C
Test: NCI In Vivo Anticancer Drug Screen. Data for tumor model L1210 Leukemia (intraperitoneal) in B6D2F1 (BDF1) mice
Conditions: higher = longer survival
In short: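 Tumor was transplanted into mice, which were then dosed with test compound or vehicle alone. Survival was recorded for each group, and the treated figure was expressed relative to the control figure.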

[1] = endpoint: mean survival time, dose: 100.0 mg/kg/injection, schedule: Q04DX003 (ip), vehicle: saline with Tween-80
[2] = endpoint: mean survival time, dose: 200.0 mg/kg/injection, schedule: Q04DX003 (ip), vehicle: saline with Tween-80
[3] = endpoint: mean survival time, dose: 400.0 mg/kg/injection, schedule: Q04DX003 (ip), vehicle: saline with Tween-80
[4] = endpoint: mean survival time, dose: 100.0 mg/kg/injection, schedule: Q01DX001 (ip), vehicle: saline
[5] = endpoint: mean survival time, dose: 200.0 mg/kg/injection, schedule: Q01DX001 (ip), vehicle: saline
[6] = endpoint: mean survival time, dose: 400.0 mg/kg/injection, schedule: Q01DX001 (ip), vehicle: saline
[7] = endpoint: mean survival time, dose: 100.0 mg/kg/injection, schedule: Q01DX009 (ip), vehicle: saline
[8] = endpoint: mean survival time, dose: 200.0 mg/kg/injection, schedule: Q01DX009 (ip), vehicle: saline
[9] = endpoint: mean survival time, dose: 400.0 mg/kg/injection, schedule: Q01DX009 (ip), vehicle: saline
[10] = endpoint: mean survival time, dose: 100.0 mg/kg/injection, schedule: Q04DX003 (ip), vehicle: Klucel (hydroxypropylcellulose) (HPC)
[11] = endpoint: mean survival time, dose: 100.0 mg/kg/injection, schedule: Q04DX003 (ip), vehicle: saline
[12] = endpoint: mean survival time, dose: 200.0 mg/kg/injection, schedule: Q04DX003 (ip), vehicle: saline
[13] = endpoint: mean survival time, dose: 400.0 mg/kg/injection, schedule: Q04DX003 (ip), vehicle: saline

Measured: T/C

c1ccc([P+](CCC[P+](c2ccccc2)(c2ccccc2)c2ccccc2)(c2ccccc2)c2ccccc2)cc1
inactive: endpoint: mean survival time, dose: 2.0 mg/kg/injection, schedule: Q01DX009 (ip), vehicle: saline 105 % of control | endpoint: mean survival time, dose: 2.0 mg/kg/injection, schedule: Q04DX003 (ip), vehicle: saline 106 % of control | endpoint: mean survival time, dose: 4.0 mg/kg/injection, schedule: Q01DX009 (ip), vehicle: saline 108 % of control | endpoint: mean survival time, dose: 4.0 mg/kg/injection, schedule: Q04DX003 (ip), vehicle: saline 101 % of control | endpoint: mean survival time, dose: 8.0 mg/kg/injection, schedule: Q01DX009 (ip), vehicle: saline 107 % of control | endpoint: mean survival time, dose: 8.0 mg/kg/injection, schedule: Q04DX003 (ip), vehicle: saline 94 % of control and 97 % of control

Cc1cc(C)cc(C(O)(c2cc(C)cc(C)c2)c2cc(C)cc(C)c2)c1
inactive: [1] 102 % of control | [2] 116 % of control | [3] 94 % of control

O=C(O)c1cc(S(=O)(=O)F)cc(S(=O)(=O)F)c1
inactive: endpoint: mean survival time, dose: 100.0 mg/kg/injection, schedule: Q01DX009 (ip), vehicle: saline with Tween-80 86 % of control

COC(=O)c1ccc2c(c1)NP(=O)(c1ccccc1)S2 (configuration not stated)
inactive: endpoint: mean survival time, dose: 75.0 mg/kg/injection, schedule: Q01DX001 (ip), vehicle: saline 98 % of control | endpoint: mean survival time, dose: 150.0 mg/kg/injection, schedule: Q01DX001 (ip), vehicle: saline 104 % of control | endpoint: mean survival time, dose: 300.0 mg/kg/injection, schedule: Q01DX001 (ip), vehicle: saline 98 % of control

O=Cc1cc(Br)ccc1[N+](=O)[O-]
inactive: [4] 103 % of control | [5] 103 % of control | [6] 101 % of control

CC1CCCC1=O (configuration not stated)
inactive: endpoint: mean survival time, dose: 50.0 mg/kg/injection, schedule: Q01DX001 (ip), vehicle: saline 96 % of control | [4] 93 % of control | [5] 93 % of control | [6] 93 % of control

Nc1nc(N)c2c(n1)SCC(c1ccc(Cl)cc1)=N2
inactive: endpoint: mean survival time, dose: 75.0 mg/kg/injection, schedule: Q01DX001 (ip), vehicle: other 101 % of control | endpoint: mean survival time, dose: 150.0 mg/kg/injection, schedule: Q01DX001 (ip), vehicle: other 98 % of control

CC1(C)/C(=C\C(=O)O)C2CCC1C2 (configuration not stated)
inactive: [4] 103 % of control | [7] 91 % of control | endpoint: mean survival time, dose: 100.0 mg/kg/injection, schedule: Q04DX003 (ip), vehicle: acetone 106 % of control | [5] 97 % of control | [8] 90 % of control | endpoint: mean survival time, dose: 200.0 mg/kg/injection, schedule: Q04DX003 (ip), vehicle: acetone 93 % of control | [6] 105 % of control | [9] 98 % of control | endpoint: mean survival time, dose: 400.0 mg/kg/injection, schedule: Q04DX003 (ip), vehicle: acetone 89 % of control

Cc1ccc(/C(O)=C\C(=S)SS)cc1
inactive: endpoint: mean survival time, dose: 100.0 mg/kg/injection, schedule: Q01DX001 (ip), vehicle: Klucel (hydroxypropylcellulose) (HPC) 108 % of control | [7] 100 % of control | [10] 97 % of control | endpoint: mean survival time, dose: 200.0 mg/kg/injection, schedule: Q01DX001 (ip), vehicle: Klucel (hydroxypropylcellulose) (HPC) 100 % of control | [8] 102 % of control | endpoint: mean survival time, dose: 200.0 mg/kg/injection, schedule: Q04DX003 (ip), vehicle: Klucel (hydroxypropylcellulose) (HPC) 90 % of control | endpoint: mean survival time, dose: 400.0 mg/kg/injection, schedule: Q01DX001 (ip), vehicle: Klucel (hydroxypropylcellulose) (HPC) 97 % of control | [9] 100 % of control | endpoint: mean survival time, dose: 400.0 mg/kg/injection, schedule: Q04DX003 (ip), vehicle: Klucel (hydroxypropylcellulose) (HPC) 92 % of control

CC(=O)Nc1ccc(OC(=O)Nc2ccccc2F)cc1
inactive: endpoint: mean survival time, dose: 100.0 mg/kg/injection, schedule: Q01DX009 (ip), vehicle: Klucel (hydroxypropylcellulose) (HPC) 98 % of control | endpoint: mean survival time, dose: 200.0 mg/kg/injection, schedule: Q01DX009 (ip), vehicle: Klucel (hydroxypropylcellulose) (HPC) 101 % of control | endpoint: mean survival time, dose: 400.0 mg/kg/injection, schedule: Q01DX009 (ip), vehicle: Klucel (hydroxypropylcellulose) (HPC) 106 % of control

NCCCC(=O)O
inactive: [4] 99 % of control | [7] 100 % of control | [11] 103 % of control | [5] 105 % of control | [8] 90 % of control | [12] 98 % of control | [6] 101 % of control | [9] 94 % of control | [13] 101 % of control

C=CCc1ccc(OCCOCCNC2CC(C)CCC2C(C)C)c(OC)c1 (configuration not stated)
inactive: [10] 92 % of control

COc1ccc2c(ccc3oc([N+](=O)[O-])cc32)c1
inactive: endpoint: median survival time, dose: 12.5 mg/kg/injection, schedule: Q01DX009 (ip), vehicle: Klucel (hydroxypropylcellulose) (HPC) 100 % of control | endpoint: median survival time, dose: 25.0 mg/kg/injection, schedule: Q01DX009 (ip), vehicle: Klucel (hydroxypropylcellulose) (HPC) 95 % of control | endpoint: median survival time, dose: 50.0 mg/kg/injection, schedule: Q01DX009 (ip), vehicle: Klucel (hydroxypropylcellulose) (HPC) 101 % of control | endpoint: median survival time, dose: 100.0 mg/kg/injection, schedule: Q01DX009 (ip), vehicle: Klucel (hydroxypropylcellulose) (HPC) 108 % of control | endpoint: median survival time, dose: 200.0 mg/kg/injection, schedule: Q01DX009 (ip), vehicle: Klucel (hydroxypropylcellulose) (HPC) 106 % of control

CCC(Cl)COP(=O)(OCC(Cl)CC)C(CC)P(=O)(OCC(Cl)CC)OCC(Cl)CC (configuration not stated)
inactive: [11] 91 % of control | [12] 95 % of control | [13] 93 % of control

O=C(NCCCC1C2CCC(C2)C1CNC(=O)Nc1cccc(Cl)c1)Nc1cccc(Cl)c1 (configuration not stated)
inactive: [1] 91 % of control | [2] 92 % of control | [3] 87 % of control

COc1cc2cc(C)c(I)cc2cc1OC
inactive: endpoint: mean survival time, dose: 75.0 mg/kg/injection, schedule: Q04DX003 (ip), vehicle: Klucel (hydroxypropylcellulose) (HPC) 97 % of control | endpoint: mean survival time, dose: 150.0 mg/kg/injection, schedule: Q04DX003 (ip), vehicle: Klucel (hydroxypropylcellulose) (HPC) 97 % of control | endpoint: mean survival time, dose: 300.0 mg/kg/injection, schedule: Q04DX003 (ip), vehicle: Klucel (hydroxypropylcellulose) (HPC) 103 % of control

O=C(Nc1nccs1)Nc1cc(C(F)(F)F)ccc1Cl
inactive: endpoint: mean survival time, dose: 50.0 mg/kg/injection, schedule: Q01DX001 (ip), vehicle: carboxymethylcellulose (CMC) 103 % of control | endpoint: mean survival time, dose: 50.0 mg/kg/injection, schedule: Q01DX009 (ip), vehicle: carboxymethylcellulose (CMC) 98 % of control and 109 % of control | endpoint: mean survival time, dose: 50.0 mg/kg/injection, schedule: Q04DX003 (ip), vehicle: carboxymethylcellulose (CMC) 102 % of control | endpoint: mean survival time, dose: 100.0 mg/kg/injection, schedule: Q01DX001 (ip), vehicle: carboxymethylcellulose (CMC) 97 % of control | endpoint: mean survival time, dose: 100.0 mg/kg/injection, schedule: Q01DX009 (ip), vehicle: carboxymethylcellulose (CMC) 101 % of control and 88 % of control | endpoint: mean survival time, dose: 100.0 mg/kg/injection, schedule: Q04DX002 (ip), vehicle: carboxymethylcellulose (CMC) 97 % of control and 101 % of control | endpoint: mean survival time, dose: 100.0 mg/kg/injection, schedule: Q04DX003 (ip), vehicle: carboxymethylcellulose (CMC) 97 % of control | endpoint: mean survival time, dose: 200.0 mg/kg/injection, schedule: Q01DX001 (ip), vehicle: carboxymethylcellulose (CMC) 98 % of control | endpoint: mean survival time, dose: 200.0 mg/kg/injection, schedule: Q04DX002 (ip), vehicle: carboxymethylcellulose (CMC) 87 % of control | endpoint: mean survival time, dose: 200.0 mg/kg/injection, schedule: Q04DX003 (ip), vehicle: carboxymethylcellulose (CMC) 96 % of control

CCN1CC=CCC1
inactive: endpoint: mean survival time, dose: 25.0 mg/kg/injection, schedule: Q04DX003 (ip), vehicle: saline 93 % of control | endpoint: mean survival time, dose: 50.0 mg/kg/injection, schedule: Q01DX009 (ip), vehicle: saline 100 % of control | endpoint: mean survival time, dose: 50.0 mg/kg/injection, schedule: Q04DX003 (ip), vehicle: saline 98 % of control | [7] 100 % of control | [11] 103 % of control and 91 % of control

CC(C)(C)NC(=O)C1CCCC(C(=O)NC(C)(C)C)C1 (configuration not stated)
inactive: [12] 88 % of control | [13] 88 % of control

COC(=O)c1cc(NS(=O)(=O)c2ccc(N)cc2)cc(C(=O)OC)c1
inactive: [4] 93 % of control | [5] 95 % of control | [6] 97 % of control

CCOC(CCC#N)c1ccc(C)cc1 (configuration not stated)
inactive: [1] 113 % of control | endpoint: mean survival time, dose: 118.0 mg/kg/injection, schedule: Q01DX009 (ip), vehicle: saline with Tween-80 108 % of control | [2] 98 % of control | endpoint: mean survival time, dose: 235.0 mg/kg/injection, schedule: Q01DX009 (ip), vehicle: saline with Tween-80 97 % of control | [3] 95 % of control

COC1OC(CBr)C(OC(C)=O)C(OC(C)=O)C1OS(C)(=O)=O (configuration not stated)
inactive: endpoint: mean survival time, dose: 100.0 mg/kg/injection, schedule: Q04DX002 (ip), vehicle: Klucel (hydroxypropylcellulose) (HPC) 100 % of control | endpoint: mean survival time, dose: 200.0 mg/kg/injection, schedule: Q04DX002 (ip), vehicle: Klucel (hydroxypropylcellulose) (HPC) 97 % of control | endpoint: mean survival time, dose: 400.0 mg/kg/injection, schedule: Q04DX002 (ip), vehicle: Klucel (hydroxypropylcellulose) (HPC) 103 % of control

CCCCSc1ncc(C)c(N(C)C)n1
inactive: endpoint: mean survival time, dose: 25.0 mg/kg/injection, schedule: Q01DX Z (ip), vehicle: methylcellulose (MC) 92 % of control | endpoint: mean survival time, dose: 50.0 mg/kg/injection, schedule: Q01DX Z (ip), vehicle: methylcellulose (MC) 89 % of control
